In one data set the test system is CF-3 cells. The data set can be described thus: Protection of fibroblasts from alpha-dicarbonyl stress (cell count after 72 hour exposure). Type of data set: cell-based, human. The protocol:
(§1) A continuous cell line of human epidermal keratinocytes (HaCat cells) and human dermal fibroblasts (CF-3 cells) were routinely cultured in 75 cm^2 flasks and split biweekly in DMEM containing 10% fetal bovine serum and kept in a humidified atmosphere containing 5% CO2 at 37° C. Human keratinocytes were split using 5% trypsin and human fibroblasts employed 1% trypsin. All experiments were carried out on 6 well dishes (Falcon USA), where keratinocytes were seeded at 2×10^4 cells/well and fibroblasts at 4×10^4 cells/well. Cells were left overnight to attach to the plate and the appropriate carbonyl scavenger was then added 15 minutes prior to the addition of the alpha-dicarbonyl stress compounds glyoxal or methylglyoxal. Following 72 hour exposure to the stress compound, cells were counted with a Coulter counter. the protective effects of the alpha-dicarbonyl scavengers were assessed by comparing the growth of untreated cells with cells exposed to alpha-carbonyl stress +/− test compound.

A further data set has as its system histone H1. The data set can be described thus: Histone H1 crosslinking by 12% SDS-PAGE with silver staining. Format: biochemical, calf. The settings on record: 5 mM; histone H1, ADP-ribose reaction system. As for the experimental part: The following screening scheme is used (see Table 1): AGE-fluorescence is determined at the beginning and after five days of incubation. Test compounds that are inherently fluorescent (designated false negatives) were identified by the initial fluorescence measurement (See Table 1, NADH for example). Since these are compounds of uncertain activity, they are diverted directly to the second stage of the screen. Aminoguanidine, a known glycation inhibitory agent, was used as a positive control for suppression of the increase on AGE-fluorescence. After five days incubation and plate reading, fluorescence quenchers (designated false positives) are excluded by measuring the quenching activity of the test compound by addition of AGE modified protein having known fluorescence activity to one microtiter plate well containing test compound in the complete reaction mixture. For this, AGE-BSA is used as the AGE-type fluorescence standard. This AGE-BSA test excludes false positives compounds that function by fluorescence quenching. If fluorescence quenching occurs the test compound is excluded from further screening. […] The protein is visualized by silver staining of the gel. […] A compound that passes the first and second stage of the screen is considered a glycation inhibitor and is further evaluated for biological activity as described below. […]

For a further data set, the system named is HaCat cells. The data set is described as follows: Protection of keratinocytes from alpha-dicarbonyl stress (cell count after 72 hour exposure). Format: cell-based, human. The protocol: as §1
A further data set deals with HaCat keratinocytes. The data set is described as follows: AGE-photosensitization of human skin cells, growth inhibition under solar simulated light. The settings on record: 10 mM.
The test system of another data set is ΦX-174 DNA. The data set is described as follows: AGE-BSA photosensitized cleavage of ΦX-174 DNA under solar simulated light. Type of data set: biochemical. The settings on record: solar simulated light, AGE-BSA as photosensitizer. As for the experimental part: Glycated Proteins as Photosensitizers of DNA Damage in Skin Photoaging. D-Penicillamine inhibits genotoxic consequences of AGE-photosensitization. Accumulation of AGEs on dermal elastin and collagen occurs during normal skin aging in humans. The hypothesis was tested that the intra- and extracellular accumulation of the complex yellow-brown AGE-chromophores contributes to skin aging and carcinogenesis induced by chronic exposure to sunlight. As a possible molecular mechanisms for a detrimental synergism of AGE-formation and exposure to sunlight, photosensitized DNA damage by AGEs was assessed in a simple in vitro system. Irradiation of covalently closed circular ΦX-174 DNA with increasing doses of solar simulated light (SSL) in the presence of AGE-BSA was used to detect photosensitized DNA nicking as a measure of DNA photodamage (panel A). […] Addition of several antioxidants modulated the photosensitization effect (panel C).

A short description of data set [1]: Alpha-dicarbonyl trapping followed by HPLC. As for the experimental part: Phenylglyoxal (10 mM) and D-penicillamine (20 mM) were reacted in 50 mM KH2PO4 buffer, pH 7.4 at room temperature. The progress of he reaction was monitored by HPLC analysis of reaction aliquots at 254 nm. After 40 minutes reaction time more than 90% conversion of the phenylglyoxal peak into a single product peak of higher retention time was observed. […] UV detection was at 254 nm. As shown by the HPLC analysis of the reaction system shown in FIG. 7, phenyglyoxal is fully reacted with D-penicillamine within 5 minutes. […] The reaction kinetics were studied at a phenylglyoxal concentration of […] and at 250 and 500 micromolar carbonyl scavenger concentration (D-penicillamine, aminoguanidine). Over the course of the reaction, aliquots were analyzed by HPLC. In the case of D-penicillamine, which required shorter sampling periods, reaction aliquots were taken every 20 seconds, and kept on dry ice until analysis. The initial reaction rates of phenylglyoxal with the test compounds were monitored by following the disappearance of phenylglyoxal over time. […] The measured first order rate constant (kst) was then used to calculate the second order rate constant (by applying the following equation: […]-carbonyl scavenger}. The calculated second order rate constants determined at the two reactant ratios were in good agreement.

Procedure for HaCat keratinocytes: Human HaCat keratinocytes growing on 35 mm dishes were exposed to solar simulated light (1.2 kJ/m^2 UVB and 23 kJ/m^2 UVA) in the presence or absence of AGE-BSA as a model of a protein with advanced glycation endproducts. Control populations were treated in exactly the same way as described above, but were not exposed to solar simulated light (SSL).

As for `CC(C)(S)[C@@H](N)C(=O)O` [D-Penicillamine], the “protection from alpha-dicarbonyl stress” value with CF-3 cells (FIG. 14) and in the data set with HaCat cells (FIG. 14) was “protection” each time. Further, the “protection from methylglyoxal induced alpha-dicarbonyl stress” value in the data set with CF-3 cells (FIG. 15) and in the data set with HaCat cells (FIG. 15) was “protection” in each case. The “inhibition of histone H1 crosslinking” value with histone H1 was “inhibit histone H1 crosslinking”. In addition, in the data set on HaCat keratinocytes, the “toxic effects on HaCat cells” value is on record as “no toxic effects”. In the data set on HaCat keratinocytes (AGE-BSA with SSL), the “reversal of the photosensitization effect” value was “completely reversed the photosensitization effect”. Also, in the data set on ΦX-174 DNA, the “effect on AGE-BSA photosensitized DNA cleavage” value is “inhibited the photosensitization effect of AGE-BSA in a dose dependent relationship”. Moreover, in data set [1] (HPLC analysis, FIG. 7), the “time until phenylglyoxal is fully reacted” value is ≤ 5 min. For the same compound, the “conversion of the phenylglyoxal peak into a single product peak” value in data set [1] (phenylglyoxal 10 mM, D-penicillamine 20 mM, pH 7.4, room temperature, after 40 minutes) is recorded as “more than 90%”.
